Test results: article PMC5290327, “SC83288 is a clinical development candidate for the treatment of severe malaria” (Nature Communications, 2017)

Tests used:
[1] = system: P. falciparum strain K1; test: microbe, parasite or virus in culture; assay type: cell-based; conditions: Plasmodium falciparum
[2] = biological target: T1, hERG channel (Homo sapiens, UniProt Q12809); test: hERG profiling, whole cell patch-clamp; assay type: cell-based
T1 construct: expressed in transfected cells; host or cells: HEK 293
Procedure: A HEK 293 cell line (Sigma Aldrich, catalogue number: 85120602) constitutively expressing the hERG channel in the membrane was used for the assay. The cells were cultured in MEM with Earle's salts and L-glutamine (10% FCS, non-essential amino acids, 300 μg ml^−1 Geneticin (G418)) and kept at 37 °C and under 5% CO2. Cells were routinely split every 3–4 days at a 1:5–1:10 ratio. The electrophysiological measurements were performed using the whole cell patch-clamp method. Extracellular bath solution contained 137 mM NaCl, 4 mM KCl, 1 mM MgCl2, 1.8 mM CaCl2, 10 mM glucose, 10 mM HEPES (pH 7.4 with NaOH), the intracellular pipette solution 130 mM KCl, 1 mM MgCl2, 5 mM MgATP, 5 mM EGTA and 10 mM HEPES (pH 7.2 with KOH). To assess the effects of SC81458 and SC83288 on the current through the hERG channel, a 1,500 ms of conditioning voltage pulse was applied every 20 s by the holding membrane potential (−80 mV) is carried out to +40 mV followed by a 500 ms test pulse of +40 mV to −40 mV. The amplitude of the current peak induced by the test pulse was determined at equilibrium (I0) and after (Idrug) addition of the substance. After the application of the substance, the cells were rinsed with extracellular bath solution until a complete recovery of the current occurred; otherwise, the cells were replaced with new ones.

[3] = Stability in cultured blood cell cultures; assay type: in vitro ADME; conditions: 2 μM, at least 6 h, 37 °C
Procedure: An enriched young trophozoite-stage culture of P. falciparum Dd2 was obtain by magnetic purification and allowed to recover for 1 h at 37 °C in RPMI 1640 medium (Life Technologies) enriched with 1% hypoxanthine (C.C.Pro GmbH) and […] (Life Technologies). The experiment was performed in a total volume of 300 μl, at a haematocrit of 50%, in presence or absence of 2 μM of SC81458 or SC83288, for 6 h at 37 °C under shaking conditions. Each sample was subsequently treated with 1.2 ml of ice-cold acetonitrile, incubated on ice for 10 min and centrifuged for 15 min at 6,000g at 4 °C. Supernatants were stored at −80 °C until mass spectrometric measurement.

[4] = biological target: T2, b1 (h) (Homo sapiens, UniProt P08588); test: Radioligand binding
T2 construct: Cerep (contract study)

[5] = biological target: T3, GAL2 (h) (Homo sapiens, UniProt O43603); test: Radioligand binding
T3 construct: Cerep

[6] = biological target: T4, H2 (h) (Homo sapiens, UniProt P25021); test: Radioligand binding
T4 construct: Cerep

[7] = biological target: T5, NK2 (h) (Homo sapiens, UniProt P21452); test: Radioligand binding
T5 construct: Cerep

[8] = biological target: T6, NK3 (h) (Homo sapiens, UniProt P29371); test: Radioligand binding
T6 construct: Cerep

[9] = biological target: T7, Y1 (h) (Homo sapiens, UniProt P25929); test: Radioligand binding
T7 construct: Cerep

[10] = biological target: T8, Y2 (h) (Homo sapiens, UniProt P49146); test: Radioligand binding
T8 construct: Cerep

[11] = biological target: T9, NTS1 (NT1) (h) (Homo sapiens, UniProt P30989); test: Radioligand binding
T9 construct: Cerep

[12] = biological target: T10, d2 (DOP) (h) (Homo sapiens, UniProt P41143); test: Radioligand binding
T10 construct: Cerep

[13] = biological target: T11, 5-HT1B (Rattus norvegicus, UniProt P28564); test: Radioligand binding
T11 construct: Cerep (contract screening)

[14] = biological target: T12, 5-HT5a (h) (Homo sapiens, UniProt P47898); test: Radioligand binding
T12 construct: Cerep (contract screening)

[15] = biological target: T13, VPAC1 (VIP1) (h) (Homo sapiens, UniProt P32241); test: Radioligand binding
T13 construct: Cerep (contract screening)

[16] = system: KV channel; test: Radioligand binding
[17] = system: Cl- channel (GABA-gated); test: Radioligand binding
[18] = biological target: T14, dopamine transporter (h) (Homo sapiens, UniProt Q01959); test: Radioligand binding
T14 construct: Cerep (contract screening)

[19] = biological target: T15, 5-HT transporter (h) (Homo sapiens, UniProt P31645); test: Radioligand binding
T15 construct: Cerep (contract screening)

[20] = system: Balb C 3T3 cells; test: Cytotoxicity; conditions: 50 μM
[21] = system: cytoplasmic free Ca2+ in P. falciparum HB3 trophozoites; test: Ca2+ live imaging, Fluo-4; conditions: SC compounds 10 and 20 μM; CPA 10 μM
[22] = In vitro micronucleus assay; conditions: 60 μM
[23] = biological target: CYP2D6 (Homo sapiens, UniProt P10635); test: CYP inhibition, human liver microsomes; conditions: CYP2D6, dextromethorphan to O-desmethyldextromethorphan, 10 µM
[24] = biological target: CYP2E1 (Homo sapiens, UniProt P05181); test: CYP inhibition, human liver microsomes; conditions: for Remaining enzyme activity: CYP2E1, chlorzoxazone to 6-OH-chlorzoxazone, 10 µM
[25] = In vitro metabolism in liver microsomes; conditions: for remaining after 60 min of incubation: human liver microsomes, 10 μM; for microsomal CLint at 10 μM: human, liver microsomes
[26] = system: 13 human cytochrome P450 enzymes; test: Inhibition of cytochrome P450 enzymes, whole panel; conditions: 10 μM

T1 sequence (Q12809 whole entry): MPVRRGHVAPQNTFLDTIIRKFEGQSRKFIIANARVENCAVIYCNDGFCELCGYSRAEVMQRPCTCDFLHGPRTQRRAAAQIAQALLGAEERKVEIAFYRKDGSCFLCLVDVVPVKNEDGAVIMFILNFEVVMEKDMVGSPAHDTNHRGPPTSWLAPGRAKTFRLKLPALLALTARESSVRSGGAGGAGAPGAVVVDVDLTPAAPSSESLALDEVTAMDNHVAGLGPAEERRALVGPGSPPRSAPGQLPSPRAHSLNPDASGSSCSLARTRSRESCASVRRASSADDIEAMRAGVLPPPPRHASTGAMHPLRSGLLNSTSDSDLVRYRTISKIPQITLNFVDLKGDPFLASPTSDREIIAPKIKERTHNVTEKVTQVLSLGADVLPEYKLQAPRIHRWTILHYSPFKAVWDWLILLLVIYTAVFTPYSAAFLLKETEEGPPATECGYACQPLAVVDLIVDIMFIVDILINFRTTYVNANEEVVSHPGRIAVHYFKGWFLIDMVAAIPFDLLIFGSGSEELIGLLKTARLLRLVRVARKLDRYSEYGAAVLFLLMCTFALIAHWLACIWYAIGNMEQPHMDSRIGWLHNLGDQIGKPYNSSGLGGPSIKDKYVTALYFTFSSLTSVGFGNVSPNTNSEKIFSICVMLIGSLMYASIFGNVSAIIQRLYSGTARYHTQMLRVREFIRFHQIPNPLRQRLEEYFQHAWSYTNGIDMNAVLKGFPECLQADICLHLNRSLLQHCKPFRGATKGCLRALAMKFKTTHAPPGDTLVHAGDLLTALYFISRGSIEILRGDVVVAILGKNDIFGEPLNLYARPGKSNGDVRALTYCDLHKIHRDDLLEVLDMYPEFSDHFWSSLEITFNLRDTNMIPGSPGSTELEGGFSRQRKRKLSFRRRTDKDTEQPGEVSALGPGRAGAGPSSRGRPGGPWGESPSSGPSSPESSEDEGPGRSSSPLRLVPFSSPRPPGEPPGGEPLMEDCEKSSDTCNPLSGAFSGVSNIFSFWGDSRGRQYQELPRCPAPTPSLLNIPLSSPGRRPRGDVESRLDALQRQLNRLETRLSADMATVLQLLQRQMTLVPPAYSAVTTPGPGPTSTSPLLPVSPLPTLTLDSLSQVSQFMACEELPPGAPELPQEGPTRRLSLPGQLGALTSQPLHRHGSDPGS
Chain of CYP2E1 (P05181 whole entry): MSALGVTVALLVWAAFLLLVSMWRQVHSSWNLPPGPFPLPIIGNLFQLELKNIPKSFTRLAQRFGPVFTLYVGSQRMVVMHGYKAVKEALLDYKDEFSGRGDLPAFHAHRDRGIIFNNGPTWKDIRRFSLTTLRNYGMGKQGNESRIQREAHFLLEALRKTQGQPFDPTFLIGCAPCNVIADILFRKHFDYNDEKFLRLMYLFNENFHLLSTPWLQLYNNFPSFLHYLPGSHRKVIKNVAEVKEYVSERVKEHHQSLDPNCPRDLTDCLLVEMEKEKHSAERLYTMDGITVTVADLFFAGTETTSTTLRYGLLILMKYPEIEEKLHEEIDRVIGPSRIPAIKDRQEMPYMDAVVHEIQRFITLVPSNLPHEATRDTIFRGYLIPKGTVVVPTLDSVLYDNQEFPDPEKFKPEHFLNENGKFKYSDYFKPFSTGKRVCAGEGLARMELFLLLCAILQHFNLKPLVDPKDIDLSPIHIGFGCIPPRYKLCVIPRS
T14 sequence (Q01959 whole entry): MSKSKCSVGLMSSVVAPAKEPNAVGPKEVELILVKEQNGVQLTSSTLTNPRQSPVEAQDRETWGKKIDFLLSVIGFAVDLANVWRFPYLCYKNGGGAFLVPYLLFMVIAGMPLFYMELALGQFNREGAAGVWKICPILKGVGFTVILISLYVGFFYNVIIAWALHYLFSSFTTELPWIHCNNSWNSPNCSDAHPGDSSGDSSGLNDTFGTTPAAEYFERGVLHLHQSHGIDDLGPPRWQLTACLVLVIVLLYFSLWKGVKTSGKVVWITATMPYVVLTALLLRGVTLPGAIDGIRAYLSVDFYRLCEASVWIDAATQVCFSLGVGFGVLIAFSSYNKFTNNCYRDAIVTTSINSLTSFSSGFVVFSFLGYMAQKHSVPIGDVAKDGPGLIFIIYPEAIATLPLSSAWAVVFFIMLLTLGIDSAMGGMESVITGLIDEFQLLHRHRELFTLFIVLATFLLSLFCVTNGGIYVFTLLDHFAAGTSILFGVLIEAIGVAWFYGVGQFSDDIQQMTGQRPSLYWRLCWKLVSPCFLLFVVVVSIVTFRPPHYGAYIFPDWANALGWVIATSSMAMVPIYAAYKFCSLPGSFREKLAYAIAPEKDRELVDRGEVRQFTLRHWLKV
T13 sequence (P32241 31-457): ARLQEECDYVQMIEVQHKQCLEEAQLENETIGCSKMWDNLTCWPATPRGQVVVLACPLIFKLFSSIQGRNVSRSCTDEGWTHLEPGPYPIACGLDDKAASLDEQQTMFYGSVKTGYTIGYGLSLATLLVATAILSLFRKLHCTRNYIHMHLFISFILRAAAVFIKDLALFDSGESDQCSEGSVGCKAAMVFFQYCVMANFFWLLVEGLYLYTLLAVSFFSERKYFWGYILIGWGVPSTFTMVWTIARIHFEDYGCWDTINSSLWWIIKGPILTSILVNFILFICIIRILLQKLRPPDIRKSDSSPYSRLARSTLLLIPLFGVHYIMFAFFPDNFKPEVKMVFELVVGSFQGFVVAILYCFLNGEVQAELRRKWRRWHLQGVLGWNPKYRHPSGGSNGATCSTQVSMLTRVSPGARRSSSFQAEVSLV
T11 sequence (P28564 whole entry): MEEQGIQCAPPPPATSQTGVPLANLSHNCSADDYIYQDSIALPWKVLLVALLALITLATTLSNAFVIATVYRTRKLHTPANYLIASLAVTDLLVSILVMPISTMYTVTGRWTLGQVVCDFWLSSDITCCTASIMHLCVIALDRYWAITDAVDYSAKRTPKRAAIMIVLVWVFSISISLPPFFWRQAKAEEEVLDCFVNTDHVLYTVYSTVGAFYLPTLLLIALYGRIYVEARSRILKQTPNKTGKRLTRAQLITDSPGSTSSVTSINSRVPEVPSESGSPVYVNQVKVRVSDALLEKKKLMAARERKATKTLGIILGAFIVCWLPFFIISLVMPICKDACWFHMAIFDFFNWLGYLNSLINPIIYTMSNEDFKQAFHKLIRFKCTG
T4 sequence (P25021 whole entry): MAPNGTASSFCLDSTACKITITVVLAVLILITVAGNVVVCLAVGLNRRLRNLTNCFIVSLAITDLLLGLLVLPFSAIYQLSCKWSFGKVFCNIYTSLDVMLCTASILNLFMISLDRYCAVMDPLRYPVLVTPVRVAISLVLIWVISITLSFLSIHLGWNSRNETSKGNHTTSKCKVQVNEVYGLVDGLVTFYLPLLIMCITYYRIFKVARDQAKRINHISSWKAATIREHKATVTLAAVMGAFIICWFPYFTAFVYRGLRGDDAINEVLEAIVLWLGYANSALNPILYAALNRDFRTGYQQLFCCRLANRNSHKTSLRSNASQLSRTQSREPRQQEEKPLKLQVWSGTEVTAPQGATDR
T3 sequence (O43603 whole entry): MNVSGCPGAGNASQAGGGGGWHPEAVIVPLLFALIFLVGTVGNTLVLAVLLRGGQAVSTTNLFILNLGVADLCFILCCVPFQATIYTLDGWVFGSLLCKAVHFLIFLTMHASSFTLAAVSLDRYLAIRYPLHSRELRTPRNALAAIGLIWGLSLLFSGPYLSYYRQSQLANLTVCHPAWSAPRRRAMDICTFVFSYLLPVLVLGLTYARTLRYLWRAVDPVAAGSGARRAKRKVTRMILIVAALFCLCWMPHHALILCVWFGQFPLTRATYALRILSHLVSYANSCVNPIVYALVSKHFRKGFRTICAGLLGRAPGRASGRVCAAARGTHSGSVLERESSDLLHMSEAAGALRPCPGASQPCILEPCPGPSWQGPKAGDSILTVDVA
T12 sequence (P47898 whole entry): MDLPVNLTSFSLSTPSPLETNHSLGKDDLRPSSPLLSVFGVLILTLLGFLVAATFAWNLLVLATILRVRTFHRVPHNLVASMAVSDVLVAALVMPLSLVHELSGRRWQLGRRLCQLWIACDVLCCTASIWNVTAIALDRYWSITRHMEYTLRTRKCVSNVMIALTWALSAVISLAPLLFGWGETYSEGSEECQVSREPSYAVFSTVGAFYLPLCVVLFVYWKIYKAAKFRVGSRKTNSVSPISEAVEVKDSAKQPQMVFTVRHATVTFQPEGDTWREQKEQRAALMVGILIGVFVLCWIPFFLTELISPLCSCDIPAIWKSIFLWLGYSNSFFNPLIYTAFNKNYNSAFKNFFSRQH
T10 sequence (P41143 whole entry): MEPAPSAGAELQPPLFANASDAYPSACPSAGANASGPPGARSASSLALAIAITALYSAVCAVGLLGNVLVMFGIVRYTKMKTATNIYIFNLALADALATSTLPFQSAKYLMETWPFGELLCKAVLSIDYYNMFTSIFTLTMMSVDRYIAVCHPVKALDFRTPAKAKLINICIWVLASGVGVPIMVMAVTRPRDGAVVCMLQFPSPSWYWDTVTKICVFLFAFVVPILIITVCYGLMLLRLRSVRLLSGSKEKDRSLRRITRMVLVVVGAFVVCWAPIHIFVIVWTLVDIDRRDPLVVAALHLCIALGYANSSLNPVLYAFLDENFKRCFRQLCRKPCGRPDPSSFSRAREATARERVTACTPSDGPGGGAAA
T9 sequence (P30989 whole entry): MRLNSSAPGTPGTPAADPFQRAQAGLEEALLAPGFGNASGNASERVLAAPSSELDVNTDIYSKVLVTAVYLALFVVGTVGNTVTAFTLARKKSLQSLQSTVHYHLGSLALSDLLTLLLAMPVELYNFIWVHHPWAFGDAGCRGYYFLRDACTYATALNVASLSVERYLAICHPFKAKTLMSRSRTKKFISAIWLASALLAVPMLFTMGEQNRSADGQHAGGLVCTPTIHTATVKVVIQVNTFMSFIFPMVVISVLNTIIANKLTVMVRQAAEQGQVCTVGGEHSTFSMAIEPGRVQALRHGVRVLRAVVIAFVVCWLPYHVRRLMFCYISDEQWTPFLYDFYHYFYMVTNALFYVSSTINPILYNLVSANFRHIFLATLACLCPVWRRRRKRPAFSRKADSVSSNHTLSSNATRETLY

Structure (SMILES) | IC50 [1] | stability in human red blood cells and P. falciparum cultures [3] | Inhibition of control specific binding [4] | Inhibition of control specific binding [5] | Inhibition of control specific binding [6] | Inhibition of control specific binding [7] | Inhibition of control specific binding [8] | Inhibition of control specific binding [9] | Inhibition of control specific binding [10] | Inhibition of control specific binding [11] | Inhibition of control specific binding [12] | Inhibition of control specific binding [13] | Inhibition of control specific binding [14] | Inhibition of control specific binding [15] | Inhibition of control specific binding [16] | Inhibition of control specific binding [17] | Inhibition of control specific binding [18] | Inhibition of control specific binding [19] | in vitro propagation / cytotoxicity [20] | effect on cytoplasmic free Ca^2+ [21] | other results
COC(=O)N1CCN(C(=N)c2cccc(NC(=O)Nc3ccc(S(=O)(=O)NCc4ccc(S(N)(=O)=O)cc4)cc3)c2)CC1 [SC83288, methyl 4-(imino(3-(3-(4-(N-(4-sulfamoylbenzyl)sulfamoyl)phenyl)ureido)phenyl)methyl) piperazine-1-carboxylate] | 5 ± 1 nM | stable | 7% | 4% | 0% | 20% | 5% | 0% | -4% | 1% | 1% | 6% | 16% | -5% | 2% | -37% | 82% | 38% | did not affect | did not affect | hERG activity retained ([2]; 20 μM): > 90%; hERG channel remaining active ([2]; 100 μM): 50%; mutagenic or clastogenic activity, in vitro micronucleus assay [22]: no signs; Remaining enzyme activity [23]: 91%; Remaining enzyme activity [24]: 68%; inhibition at 20 min, 10 µM ([24]; human, pooled liver microsomes, pH 7.4, probe chlorzoxazone (10 μM)): 30%; remaining after 60 min of incubation [25]: 50%; microsomal CLint at 10 μM [25]: 75.8 ± 2.5 µL/min/mg; inhibition potential towards 13 human cytochrome P450 enzymes [26]: low
CCCCN1CCN(C(=N)c2cccc(NC(=O)Nc3ccc(S(=O)(=O)NCc4ccc(S(N)(=O)=O)cc4)cc3)c2)CC1 [SC81458, 4-(3-(3-((4-butylpiperazin-1-yl)(imino)methyl)phenyl)ureido)-N-(4-sulfamoylbenzyl) benzenesulfonamide] | 9 ± 3 nM | stable | -2% | -15% | 26% | 51% | 6% | 0% | -20% | 1% | 10% | -3% | 1% | -4% | 0% | -28% | 79% | 28% | did not affect | did not affect | hERG activity retained ([2]; 60 μM): > 90%; mutagenic or clastogenic activity, in vitro micronucleus assay [22]: no signs; Remaining enzyme activity [23]: 107%; Remaining enzyme activity [24]: 106%; remaining after 60 min of incubation [25]: almost completely metabolized; microsomal CLint at 10 μM ([25]; monkey): 303 µL/min/mg; inhibition potential towards 13 human cytochrome P450 enzymes [26]: low
